ChEMBL document CHEMBL1158467, “In vitro intrinsic clearance-based optimization of N3-phenylpyrazinones as corticotropin-releasing factor-1 (CRF1) receptor antagonists” (J Med Chem, 2009)
In brackets after ≈: the same amount, converted by molar mass. One block for each compound: values may come before it. Activity calls are given as the source filed them. The calls are words filed in the database; no cut-off is given here.

Tests used:
[1] = Intrinsic clearance in human liver microsomes at 1 uM; assay type: ADME, Microsome
[2] = molecular target: T1, Corticotropin-releasing factor receptor 1 (Rattus norvegicus, UniProt P35353); experiment: Displacement of [125I]ovine-CRF from CRF1 receptor in rat frontal cortex by rapid filtration technique; assay type: tissue-based
T1 sequence (P35353 whole entry): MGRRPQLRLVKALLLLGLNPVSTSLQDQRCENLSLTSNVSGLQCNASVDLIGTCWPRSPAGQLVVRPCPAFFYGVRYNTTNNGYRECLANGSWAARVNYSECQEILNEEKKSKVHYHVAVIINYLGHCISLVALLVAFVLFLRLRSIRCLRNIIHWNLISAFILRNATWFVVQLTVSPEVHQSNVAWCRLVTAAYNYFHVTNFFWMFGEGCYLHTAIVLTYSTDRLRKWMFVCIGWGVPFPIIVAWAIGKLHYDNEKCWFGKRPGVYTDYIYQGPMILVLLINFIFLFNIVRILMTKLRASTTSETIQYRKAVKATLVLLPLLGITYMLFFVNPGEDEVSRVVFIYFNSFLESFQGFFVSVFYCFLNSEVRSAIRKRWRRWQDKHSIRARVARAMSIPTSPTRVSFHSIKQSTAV

[3] = Half life in Sprague-Dawley rat 2 mg/kg, iv within 0.17 to 24 hrs; assay type: ADME, organism-based; design: dose 2 mg/kg, route intravenous; conditions: in vivo
[4] = Volume of distribution at steady state in Sprague-Dawley rat 2 mg/kg, iv within 0.17 to 24 hrs; assay type: ADME, organism-based; design: dose 2 mg/kg, route intravenous; conditions: in vivo, read-out: Vdss
[5] = Clearance in Sprague-Dawley rat 2 mg/kg, iv within 0.17 to 24 hrs; assay type: ADME, organism-based; design: dose 2 mg/kg, route intravenous; conditions: in vivo
[6] = AUC in Sprague-Dawley rat at 10 mg/kg, po dosed as aqueous suspension of 1% polysorbate 80 in 0.5% methylcellulose within 0.25 to 24 hrs; assay type: ADME, organism-based; design: time 0.25-24 hr, dose 10 mg/kg, route oral; conditions: in vivo
[7] = Cmax in Sprague-Dawley rat at 10 mg/kg, po dosed as aqueous suspension of 1% polysorbate 80 in 0.5% methylcellulose within 0.25 to 24 hrs; assay type: ADME, organism-based; design: dose 10 mg/kg, route oral; conditions: in vivo
[8] = Oral bioavailability in Sprague-Dawley rat at 10 mg/kg dosed as aqueous suspension of 1% polysorbate 80 in 0.5% methylcellulose within 0.25 to 24 hrs; assay type: ADME, organism-based; conditions: in vivo
[9] = Fraction unbound in Sprague-Dawley rat plasma at 10 mg/kg, po after 3 hrs by equilibrium dialysis; assay type: ADME, organism-based; design: dose 10 mg/kg, route oral
Rattus norvegicus [10] = experiment: Total plasma concentration in Sprague-Dawley rat at 10 mg/kg, po; assay type: ADME, organism-based; design: dose 10 mg/kg, route oral; conditions: in vivo
Rattus norvegicus [11] = experiment: Plasma free concentration in Sprague-Dawley rat at 10 mg/kg, po; assay type: ADME, organism-based; design: dose 10 mg/kg, route oral; conditions: in vivo
Rattus norvegicus [12] = experiment: Ex vivo receptor occupancy of CRF1 receptor in Sprague-Dawley rat brain at 10 mg/kg, po after 20 mins by autoradiography relative to [125I-tyrosine]sauvagine; assay type: functional
Rattus norvegicus [13] = experiment: Ex vivo receptor occupancy of CRF1 receptor in Sprague-Dawley rat brain at 3 mg/kg, po after 20 mins by autoradiography relative to [125I-tyrosine]sauvagine; assay type: functional
Rattus norvegicus [14] = experiment: Ex vivo receptor occupancy of CRF1 receptor in Sprague-Dawley rat brain at 1 mg/kg, po after 20 mins by autoradiography relative to [125I-tyrosine]sauvagine; assay type: functional
Rattus norvegicus [15] = experiment: Anxiolytic activity in Sprague-Dawley rat at 10 mg/kg, po assessed as decrease in exit latency after 60 mins by defensive withdrawal test relative to control; assay type: functional; design: scale not given: the % may be the effect or the level left
Rattus norvegicus [16] = experiment: Anxiolytic activity in Sprague-Dawley rat at 3 mg/kg, po assessed as decrease in exit latency after 60 mins by defensive withdrawal test relative to control; assay type: functional
Rattus norvegicus [17] = experiment: Anxiolytic activity in Sprague-Dawley rat at 1 mg/kg, po assessed as decrease in exit latency after 60 mins by defensive withdrawal test relative to control; assay type: functional
[18] = AUC in Sprague-Dawley rat at 10 mg/kg, po dosed as aqueous solution of oleoyl macrogolglyceride/DMAC/polysorbate 80, 85:10:5 within 0.25 to 24 hrs; assay type: ADME, organism-based; design: time 0.25-24 hr, dose 10 mg/kg, route oral; conditions: plasma
[19] = Cmax in Sprague-Dawley rat at 10 mg/kg, po dosed as aqueous solution of oleoyl macrogolglyceride/DMAC/polysorbate 80, 85:10:5 within 0.25 to 24 hrs; assay type: ADME, organism-based; design: dose 10 mg/kg, route oral; conditions: Sprague-Dawley, in vivo
[20] = Oral bioavailability in Sprague-Dawley rat at 10 mg/kg dosed as aqueous solution of oleoyl macrogolglyceride/DMAC/polysorbate 80, 85:10:5 within 0.25 to 24 hrs; assay type: ADME, organism-based; conditions: Sprague-Dawley, in vivo
[21] = Aqueous solubility at pH 1; assay type: physicochemical
[22] = Aqueous solubility at pH 6.5; assay type: physicochemical

Structure (SMILES): COc1cc(C)c(Nc2nc(Cl)cn([C@H](C)C3CC3)c2=O)cc1C
CLint scaled at 1 µM [1]: 61 mL/min/kg

Structure (SMILES): COc1cc(Cl)c(Nc2nc(Cl)cn([C@H](C)C3CC3)c2=O)c(Cl)c1
CLint scaled at 1 µM [1]: 130 mL/min/kg

Structure (SMILES): C[C@H](C1CC1)n1cc(C#N)nc(Nc2c(Cl)cc(OC(F)F)cc2Cl)c1=O
half-life [3]: 12 h
Vd [4]: 13 L/kg
clearance [5]: 21 mL/min/kg
IC50 [2]: 4.3 nM
AUC [6]: 1.9 µM·h
Cmax [7]: 160 nM
bioavailability [8]: 10%
AUC [18]: 15 µM·h
Cmax [19]: 1600 nM
bioavailability [20]: 80%
solubility [21]: < 1 µg/mL
solubility [22]: < 1 µg/mL
fraction unbound at 3 h [9]: 0.03
Activity (Rattus norvegicus [12]): 55%
Activity (Rattus norvegicus [15]): 61%

Structure (SMILES): CC[C@H](COC)n1cc(Cl)nc(Nc2c(Cl)cc(C#N)cc2Cl)c1=O
CLint scaled at 1 µM [1]: 210 mL/min/kg
IC50 [2]: 1.7 nM

Structure (SMILES): Cc1cc(C)c(Nc2nc(Cl)cn([C@H](C)C3CC3)c2=O)cc1C
IC50 [2]: 4.8 nM

Structure (SMILES): CC[C@H](C1CC1)n1cc(Cl)nc(Nc2c(C)cc(Cl)cc2Cl)c1=O
CLint scaled at 1 µM [1]: 210 mL/min/kg

Structure (SMILES): C[C@H](C1CC1)n1cc(C#N)nc(Nc2c(Cl)cc(C(F)(F)F)cc2Cl)c1=O
CLint scaled at 1 µM [1]: 13 mL/min/kg
IC50 [2]: 7.5 nM
fraction unbound at 3 h [9]: 0.011
concentration (Rattus norvegicus [10]): 1400 nM
Cp(f) (Rattus norvegicus [11]): 16 nM
Activity (Rattus norvegicus [12]): 68%

Structure (SMILES): C[C@H](C1CC1)n1cc(Cl)nc(Nc2c(Cl)cc(Cl)cc2Cl)c1=O
IC50 [2]: 0.91 nM

Structure (SMILES): CC[C@H](C1CC1)n1cc(Cl)nc(Nc2c(Cl)cc(OC)cc2Cl)c1=O
CLint scaled at 1 µM [1]: 400 mL/min/kg
IC50 [2]: 0.44 nM

Structure (SMILES): C[C@H](C1CC1)n1cc(Cl)nc(Nc2c(Cl)cc(C#N)cc2Cl)c1=O
CLint scaled at 1 µM [1]: 58 mL/min/kg
fraction unbound at 3 h [9]: 0.019
concentration (Rattus norvegicus [10]): 120 nM
Cp(f) (Rattus norvegicus [11]): 2.3 nM
Activity (Rattus norvegicus [12]): 11%

Structure (SMILES): C[C@H](C1CC1)n1cc(Cl)nc(Nc2c(Cl)cc(OC(F)(F)F)cc2Cl)c1=O
CLint scaled at 1 µM [1]: 30 mL/min/kg
IC50 [2]: 6.5 nM

Structure (SMILES): Cc1cc(Cl)c(Nc2nc(Cl)cn([C@H](C)C3CC3)c2=O)cc1C#N
CLint scaled at 1 µM [1]: 160 mL/min/kg
IC50 [2]: 19 nM

Further compounds by falling IC50 [2], results first:

CLint scaled at 1 µM [1]: 180 mL/min/kg
IC50 [2]: 8.2 nM
Structure (SMILES): COc1cc(Cl)c(Nc2nc(Cl)cn([C@H](C)C3CC3)c2=O)cc1F

half-life [3]: 17 h
Vd [4]: 24 L/kg
clearance [5]: 21 mL/min/kg
CLint scaled at 1 µM [1]: 10 mL/min/kg
IC50 [2]: 4.1 nM
AUC [6]: 7.35 µM·h
Cmax [7]: 490 nM
bioavailability [8]: 37%
fraction unbound at 3 h [9]: 0.0033
concentration (Rattus norvegicus [10]): 2000 nM
Cp(f) (Rattus norvegicus [11]): 6.7 nM
Structure (SMILES): C[C@H](C1CC1)n1cc(Cl)nc(Nc2c(Cl)cc(C(F)(F)F)cc2Cl)c1=O
Activity (Rattus norvegicus [12]): 81%
Activity (Rattus norvegicus [13]): inactive
Activity (Rattus norvegicus [14]): inactive
Activity (Rattus norvegicus [15]): 68%
Activity (Rattus norvegicus [16]): inactive
Activity (Rattus norvegicus [17]): inactive

CLint scaled at 1 µM [1]: 110 mL/min/kg
IC50 [2]: 3.7 nM
Structure (SMILES): CCCC(CCC)n1cc(Cl)nc(Nc2c(Cl)cc(C(F)(F)F)cc2Cl)c1=O

half-life [3]: 12 h
Vd [4]: 12 L/kg
clearance [5]: 30 mL/min/kg
IC50 [2]: 3.1 nM
AUC [6]: 0.95 µM·h
Cmax [7]: 95 nM
bioavailability [8]: 6%
AUC [18]: 1.7 µM·h
Cmax [19]: 270 nM
bioavailability [20]: 10%
solubility [21]: 1360 µg/mL (≈ 4100 µM)
solubility [22]: 13 µg/mL (≈ 39.2 µM)
Structure (SMILES): Cc1cn([C@H](C)C2CC2)c(=O)c(Nc2c(C)cc(Cl)cc2C)n1

CLint scaled at 1 µM [1]: 64 mL/min/kg
IC50 [2]: 1.6 nM
Structure (SMILES): COC[C@@H](C1CC1)n1cc(Cl)nc(Nc2c(Cl)cc(C(F)(F)F)cc2Cl)c1=O

CLint scaled at 1 µM [1]: 89 mL/min/kg
IC50 [2]: 1.3 nM
Structure (SMILES): CC[C@H](C1CC1)n1cc(Cl)nc(Nc2c(Cl)cc(C(F)(F)F)cc2Cl)c1=O

CLint scaled at 1 µM [1]: 22 mL/min/kg
IC50 [2]: 0.46 nM
Structure (SMILES): C[C@H](C1CC1)n1cc(Cl)nc(Nc2c(Cl)cc(OC(F)F)cc2Cl)c1=O
